Measured values published in patent publication US6020328A, “20-keto-11β-arylsteroids and their derivatives having agonist or antagonist hormonal properties” (Research Triangle Institute, priority 1998, dated 2000).
Where “and” joins values, the source holds several entries; their conditions need not be identical. Equal entries are not always repeated.

How the values were obtained:
progestin receptor (hPR) = assay: progestin receptor binding; conditions: cytosol from human T-47D breast cells; [3H]-R5020; read-out: Receptor Binding Affinity hPR IC50
Text: However, the receptors were of human origin and a different radioligand was used. Thus, for progestin receptor binding the receptor was obtained in cytosol from human T-47D breast cells and [^3 H]-R5020 was used as the radioligand. Data are expressed as IC50 values, i.e., the concentration of compound that inhibits the radioligand binding by 50%.

Human T-47D breast cells [1] = assay: T-47D cell proliferation, antagonist format (inhibition of 0.15 nM R5020-mediated proliferation); type: cell-based; conditions: T47D; for EC50: inhibition of 0.15 nM R5020-mediated proliferation, N.D. not detected; for Emax: maximum % inhibition, 0.15 nM R5020, read-out: Cell Proliferation Antagonist maximum % Inhib.
Method: (§1) Human T-47D breast cells grown in nutrient media were incubated with the standard progestin R5020 alone or with R5020 plus test compound and then assessed by standard procedures for proliferation using incorporation of [^3 H]-thymidine as the measurement. […] The maximum % inhibition (a measure of the efficacy of the compounds) is also given. In the agonist format of this assay the compounds were tested at concentrations ranging from 0.01 to 10 nM and the maximum % stimulation at any dose is listed in Table 2. […] However, the presence of a very polar hydroxyl group in the 17α-position greatly diminishes antiprogestational activity and this holds even when the OH is separated from the 17-carbon atom by a methylene group.

Human T-47D breast cells [2] = assay: T-47D cell proliferation, agonist format; type: cell-based; conditions: T47D, 0.01 to 10 nM, maximum at any dose, read-out: Cell Proliferation Agonist maximum % Stim.
Method: as §1

rabbits [3] = assay: McGinty test (agonist, test compound alone); type: in vivo, rabbit
Method: (§2) Progestational activity and antiprogestational activity were determined in rabbits by means of the McGinty test (test compound alone, procedure of McGinty et al., Endocrinology, 24:829-832 (1939)) or anti-McGinty test (test compound plus progesterone, procedure of Tamara et al., Jpn. J. Fertil. Steril. 24:48-81 (1979)). Results were scored according to McPhail (McPhail, J. Physiol., 83:146 (1934)).

rabbits [4] = assay: anti-McGinty test (antagonist, test compound plus progesterone); type: in vivo, rabbit; conditions: for McPhail Index, McGinty Assay (Antagonist): rabbit, in vivo
Method: as §2

| Structure (SMILES) | IC50 (progestin receptor (hPR)) [nM] | EC50 (Human T-47D breast cells [1]) [nM] | Emax (Human T-47D breast cells [1]) [%] | Emax (Human T-47D breast cells [2]) [%] | McPhail Index, McGinty Assay (Agonist) (rabbits [3]; dose 0.3 micrograms) | McPhail Index, McGinty Assay (Agonist) (rabbits [3]; dose 3 micrograms) | McPhail Index, McGinty Assay (Agonist) (rabbits [3]; dose 30 micrograms) | progestational activity, McGinty test (rabbits [3]; in words) | antiprogestational activity, anti-McGinty test (rabbits [4]; in words) | McPhail Index, McGinty Assay (Antagonist) (rabbits [4]) | McPhail Index, McGinty Assay (Agonist), progesterone (rabbits [3]; progesterone control, printed under first dose column, own dose not stated) | McPhail Index, McGinty Assay (Antagonist), progesterone (Standard) (rabbits [4]; progesterone standard, printed under first dose column, own dose not stated) |
| --- | --- | --- | --- | --- | --- | --- | --- | --- | --- | --- | --- | --- |
| CCC(=O)O[C@]1(C(C)=O)CC[C@H]2[C@@H]3CCC4=CC(=O)CCC4=C3[C@@H](c3ccc4c(ccn4C)c3)C[C@@]21C [11β-(1-Methylindol-5-yl)-17α-propionyloxy-19-norpregna-4,9-diene-3,20-dione] | 2.3 | 2.4 | 107 | 7 | 0 +/- 0 | 0 +/- 0 | 0 +/- 0 | – | – | – | – | – |
| CCC(=O)O[C@]1(C(C)=O)CC[C@H]2[C@@H]3CCC4=CC(=O)CCC4=C3[C@@H](c3ccc(N4CCCCC4)cc3)C[C@@]21C [11β-(4-(N-piperidino)phenyl)-17α-propionyloxy-19-norpregna-4,9-diene-3,20-dione] | 2 | 1 | 111 | -16 | 0 +/- 0 | 0 +/- 0 | 0 +/- 0 | – | – | – | – | – |
| CC(=O)O[C@]1(C(C)=O)CC[C@H]2[C@@H]3CCC4=CC(=O)CCC4=C3[C@@H](c3ccc4c(c3)CCN4C)C[C@@]21C [17α-Acetoxy-11β-(1-methyl-2,3-dihydroindol-5-yl)-19-norpregna-4,9-diene-3,20-dione] | 2 | 1.5 | 103 | 6 | 0.6 +/- 0.1 | 0.2 +/- 0.1 | 0.2 +/- 0.1 | – | – | – | – | – |
| CC(=O)O[C@]1(C(C)=O)CC[C@H]2[C@@H]3CCC4=CC(=O)CCC4=C3[C@@H](c3ccc(N(C)C)nc3)C[C@@]21C [17α-Acetoxy-11β-[2-(N,N-dimethylamino)pyrid-5-yl]-19-norpregna-4,9-diene-3,20-dione] | 11 | 2.9 | 92 | 5 | 0 +/- 0 | 0 +/- 0 | 0 +/- 0 | – | – | – | – | – |
| CCC(=O)O[C@]1(C(C)=O)CC[C@H]2[C@@H]3CCC4=CC(=O)CCC4=C3[C@@H](c3ccc(N4CCCC4)cc3)C[C@@]21C [17α-Propionyloxy-11β-[4-(N-pyrrolidino)phenyl-19-norpregna-4,9-diene-3-20-dione] | 4.8 | 0.9 | 107 | -1 | 0 +/- 0 | 0 +/- 0 | 0.1 +/- 0.1 | – | – | – | – | – |
| COc1ccc([C@H]2C[C@@]3(C)[C@@H](CC[C@]3(OC(C)=O)C(C)=O)[C@@H]3CCC4=CC(=O)CCC4=C32)cc1 [I 4-CH3 O H O H --O--CO--CH3 H, 17α-Acetoxy-11β-(4-methoxyphenyl)-19-norpregna-4,9-diene-3,20-dione] | 0.8 | 0.3 | 119 | 2 | 1.5 +/- 0.2 | 1.5 +/- 0.6 | 1.5 +/- 0.7 | both agonist and antagonist properties | both agonist and antagonist properties | – | – | – |
| CC(=O)O[C@]1(C(C)=O)CC[C@H]2[C@@H]3CCC4=CC(=O)CCC4=C3[C@@H](c3ccc(N(C)C)c(F)c3)C[C@@]21C [I 4-Me2 N 3-F O H --O--CO--CH3 H, 17α-Acetoxy-11β-(4-N,N-Dimethylamino-3-fluorophenyl)-19-norpregna4,9-diene-3,20-dione] | 2.2 | 0.7 | 101 | 30 | 2.5 +/- 0.2 | 3.0 +/- 0.3 | 3.6 +/- 0.1 | – | – | 3.6 +/- 0.1 and 3.3 +/- 0.3 and 2.8 +/- 0.3 | – | – |
| C#C[C@]1(C(C)=O)CC[C@H]2[C@@H]3CCC4=CC(=O)CCC4=C3[C@@H](c3ccc(N(C)C)cc3)C[C@@]21C [I 4-Me2 N H O H --CCH H, 11β-(4-(N,N-Dimethylamino)phenyl)-17α-ethynyl-19-norpregna-4,9-diene-3,20-dione] | 2.5 | 0.4 | 101 | 12 | 0.1 +/- 0.1 | 0.2 +/- 0.2 | 0.2 +/- 0.2 | – | – | – | – | – |
| CC(=O)[C@@]1(CO)CC[C@H]2[C@@H]3CCC4=CC(=O)CCC4=C3[C@@H](c3ccc(N(C)C)cc3)C[C@@]21C [I 4-Me2 N H O H --CH2 --OH H, 11β-(4-(N,N-dimethylamino)phenyl)-17α-hydroxymethyl-19-norpregna-4,9-diene-3,20-dione] | 43.6 | – | 23 | 11 | 0 +/- 0 | 0 +/- 0 | 0 +/- 0 | – | – | 2.9 +/- 0.5 and 2.8 +/- 0.2 and 2.7 +/- 0.2 | – | – |
| CCC(=O)O[C@]1(C(C)=O)CC[C@H]2[C@@H]3CCC4=CC(=O)CCC4=C3[C@@H](c3ccc(N(C)C)cc3)C[C@@]21C [I 4-Me2 N H O H --O--CO--C2 H5 H, 11β-[4-(N,N-dimethylamino)phenyl]-17α-propionyloxy-19-norpregna-4,9-diene-3,10-dione] | 1.3 | 0.4 | 110 | 4 | 0 +/- 0 | 0 +/- 0 | 0 +/- 0 | – | – | – | – | – |
| CC(=O)[C@@]1(OC(=O)c2ccccc2)CC[C@H]2[C@@H]3CCC4=CC(=O)CCC4=C3[C@@H](c3ccc(N(C)C)cc3)C[C@@]21C [I 4-Me2 N H O H --O--CO--C6 H5 H, 11β-[4-(N,N-Dimethylamino)phenyl]-17α-benzoyloxy-19-norpregna-4,9-diene-3,20-dione] | 24 | 6.4 | 69 | 18 | 0 +/- 0 | 0 +/- 0 | 0 +/- 0 | – | – | – | – | – |
| CC[C@]1(C(C)=O)CC[C@H]2[C@@H]3CCC4=CC(=O)CCC4=C3[C@@H](c3ccc(N(C)C)cc3)C[C@@]21C [I 4-Me2 N H O H C2 H5 H, 11β-[4-(N,N-dimethylamino)phenyl]-17α-ethyl-19-norpregna-4,9-diene-3,20-dione] | 0.6 | 0.3 | 110 | 8 | 0.2 +/- 0.1 | 0.3 +/- 0.2 | 0.3 +/- 0.26 | – | – | – | – | – |
| COC(=O)[C@]1(C(C)=O)CC[C@H]2[C@@H]3CCC4=CC(=O)CCC4=C3[C@@H](c3ccc(N(C)C)cc3)C[C@@]21C [I 4-Me2 N H O H COOCH3 H, 17α-carbomethoxy-11β-(4-(N,N-dimethylamino)phenyl)-19-norpregna-4,9-diene-3,20-dione] | 0.7 | 0.4 | 92 | 24 | 0 +/- 0 | 0 +/- 0 | 0.07 +/- 0.07 | – | – | – | – | – |
| CC(=O)[C@@]1(OC(=O)Cc2ccccc2)CC[C@H]2[C@@H]3CCC4=CC(=O)CCC4=C3[C@@H](c3ccc(N(C)C)cc3)C[C@@]21C [I 4-Me2 N H O H O--CO--CH2 C6 H5 H, 11β-[4-(N,N-Dimethylamino)phenyl]-17α-phenylacetoxy-19-norpregna-4,9-diene-3,20-dione] | 7.9 | 1.9 | 99 | 16 | – | – | – | – | – | – | – | – |
| CC(=O)[C@H]1CC[C@H]2[C@@H]3CCC4=CC(=O)CC[C@]4(C)[C@H]3CC[C@]12C [Progesterone, reference compound] | 3.3 | – | – | – | – | – | – | – | – | – | 2.45 +/- 0.14 | 2.45 +/- 0.14 |
